Values after ≈ are worked out from the molar mass of the structure shown.
Tests used:
Type in all cases: cell-based
[1] = test system: Bacillus subtilis (NBRC3134); experiment: Growth inhibition activity (MIC, agar) against aerobic bacteria; conditions: Bacillus subtilis; strain NBRC3134; Mueller Hinton Agar, 37 degrees C. overnight; read-out: MIC (Minimum Inhibitory Concentration)
Description: (§1) In the present invention, the growth inhibition activity, which is an indicator of the antimicrobial activity, is evaluated by determining the Minimum Inhibitory Concentration (MIC) with an agar or liquid medium.
(§2) Furthermore, the following bacteria were also used as other general aerobic bacteria: • Escherichia coli: Escherichia coli (NBRC3972) • Pseudomonas aeruginosa: Pseudomonas aeruginosa (NBRC13275) • Bacteria in intestines: Proteus vulgaris (NBRC3167) • Pneumobacillus: Klebsiella pneumoniae (NBRC13277) • Bacillus subtilis: Bacillus subtilis (NBRC3134)
(§3) The test strains were cultured in the liquid medium which the Bioresource center recommends, and then the test strains were subcultured to a Mueller Hinton Broth (Difco) at 30 degrees C. The grown bacteria were diluted to 10^6 CFU/ml with saline to adjust the bacteria fluids for inoculation.
(§4) Furthermore, in order to examine the growth inhibition activities against the bacteria by the above cooling agents, the concentration of the cooling agents: (3S)-CA20, (3R)-CA20, CA1, CA5, CA15, CA55 or CA MGH was diluted with ethanol to the required level of concentration for the determining the Minimum Inhibitory Concentration to produce the sample liquids.
(§5) Next, 100 μL of each sample liquid was added to 10 mL of a Mueller Hinton Agar (Difco) agar medium solution in a soluble state, and each agar medium solution was poured into a petri dish and solidified to prepare test plates having several concentrations of the sample liquids (several concentrations of the above cooling agents). Subsequently, 5 μL of the above bacteria fluids for inoculation were stamped on the test plates, and then the test plates were cultured at 37 degrees C. overnight.
(§6) In this way, the growth inhibition activities by (3S)-CA20, (3R)-CA20, CA1, CA5, CA15, CA55, CA MGH were examined. The minimum concentration of the cooling agent in which the growth of bacteria could not be confirmed was considered as the MIC (Minimum Inhibitory Concentration).
(§7) The minimum concentration of the cooling agent in which the grown strain could not be confirmed was considered as the MIC (Minimum Inhibitory Concentration).

[2] = test system: Escherichia coli (NBRC3972); experiment: as above; conditions: Escherichia coli; strain NBRC3972; Mueller Hinton Agar, 37 degrees C. overnight; read-out: MIC (Minimum Inhibitory Concentration)
Description: as §1, §2, §3, §4, §5, §6, §7

[3] = test system: Klebsiella pneumoniae (NBRC13277); experiment: as above; conditions: Klebsiella pneumoniae; strain NBRC13277; Mueller Hinton Agar, 37 degrees C. overnight; read-out: MIC (Minimum Inhibitory Concentration)
Description: as §1, §2, §3, §4, §5, §6, §7

[4] = test system: Proteus vulgaris (NBRC3167); experiment: as above; conditions: Proteus vulgaris; strain NBRC3167; Mueller Hinton Agar, 37 degrees C. overnight; read-out: MIC (Minimum Inhibitory Concentration)
Description: as §1, §2, §3, §4, §5, §6, §7

[5] = test system: Pseudomonas aeruginosa (NBRC13275); experiment: as above; conditions: Pseudomonas aeruginosa; strain NBRC13275; Mueller Hinton Agar, 37 degrees C. overnight; read-out: MIC (Minimum Inhibitory Concentration)
Description: as §1, §2, §3, §4, §5, §6, §7

[6] = test system: Actinomyces naeslundii (JCM8350); experiment: Growth inhibition activity (MIC, agar) against anaerobic bacteria; conditions: Actinomyces naeslundii, JCM8350, 72 h, strain JCM8350; Trypticase Soy Broth agar, 37 degrees C. for 3 days; read-out: MIC (Minimum Inhibitory Concentration)
Description: as §1
(§8) In the test for growth inhibition activity, the following strains were used: • Acne bacteria: Propionibacterium acnes (JCM6473) and (ATCC6919) • Abscess bacteria: Bacteroides fragilis (GAI5560) • Cavity-causing bacteria: Streptococcus mutans (JCM5175), Actinomyces naeslundii (JCM8350) and Actinomyces viscosus (JCM8352) • Periodontal pathogen: Fusobacterium nucleatum (JCM6328), Porphyromonas gingivalis (JCM8525), Prevotella nigrescens (JCM6322)
(§9) The test strains were cultured in a GAM medium (Nissui Pharmaceutical Co., LTD), a Schaedler Broth (BBL) or a Trypticase Soy Broth (BBL) liquid medium, and then the grown bacteria were diluted in saline to prepare turbidity 0.5 McFarland of the bacteria fluids for inoculation. The bacteria were cultured at 37 degrees C. for 3 days under an anaerobic condition by using AnaeroPack® from MGC.
as §4, with “cooling agent,” for “cooling agents,”, “of concentrations” for “of concentration”
(§10) Next, 100 μL of each sample liquid was added to 10 mL of a Trypticase Soy Broth agar medium solution in a soluble state, and each agar medium solution was poured into a petri dish and solidified, to prepare the test plates. Subsequently, 5 μL of above the bacteria fluids for inoculation were stamped on the test plates, and then the test plates were cultured at 37 degrees C. for 3 days.
(§11) The minimum concentration of the cooling agent in which the growth of bacteria could not be confirmed was considered as the MIC (Minimum Inhibitory Concentration).
as §11

[7] = test system: Actinomyces viscosus (JCM8352); experiment: as above; conditions: Actinomyces viscosus, 72 h; strain JCM8352; Trypticase Soy Broth agar, 37 degrees C. for 3 days; read-out: MIC (Minimum Inhibitory Concentration)
Description: as §1, §8, §9
as §4, with “cooling agent,” for “cooling agents,”, “of concentrations” for “of concentration”
as §10, §11, §11

[8] = test system: Bacteroides fragilis (GAI5560); experiment: as above; conditions: Bacteroides fragilis, 72 h; strain GAI5560; Trypticase Soy Broth agar, 37 degrees C. for 3 days; read-out: MIC (Minimum Inhibitory Concentration)
Description: as §1, §8, §9
as §4, with “cooling agent,” for “cooling agents,”, “of concentrations” for “of concentration”
as §10, §11, §11

[9] = test system: Prevotella nigrescens (JCM6322); experiment: as above; conditions: Prevotella nigrescens, JCM6322, 72 h, strain JCM6322; Trypticase Soy Broth agar, 37 degrees C. for 3 days; read-out: MIC (Minimum Inhibitory Concentration)
Description: as §1, §8, §9
as §4, with “cooling agent,” for “cooling agents,”, “of concentrations” for “of concentration”
as §10, §11, §11

[10] = test system: Propionibacterium acnes (ATCC6919); experiment: as above; conditions: Cutibacterium acnes, ATCC6919, 72 h, strain ATCC6919; Trypticase Soy Broth agar, 37 degrees C. for 3 days; read-out: MIC (Minimum Inhibitory Concentration)
Description: as §1, §8, §9
as §4, with “cooling agent,” for “cooling agents,”, “of concentrations” for “of concentration”
as §10, §11, §11

[11] = test system: Propionibacterium acnes (JCM6473); experiment: as above; conditions: Cutibacterium acnes, 72 h; strain JCM6473; Trypticase Soy Broth agar, 37 degrees C. for 3 days; read-out: MIC (Minimum Inhibitory Concentration)
Description: as §1, §8, §9
as §4, with “cooling agent,” for “cooling agents,”, “of concentrations” for “of concentration”
as §10, §11, §11

[12] = test system: Streptococcus mutans (JCM5175); experiment: as above; conditions: Streptococcus mutans, 72 h; strain JCM5175; Trypticase Soy Broth agar, 37 degrees C. for 3 days; read-out: MIC (Minimum Inhibitory Concentration)
Description: as §1, §8, §9
as §4, with “cooling agent,” for “cooling agents,”, “of concentrations” for “of concentration”
as §10, §11, §11

Compound | MIC [1] | MIC [2] | MIC [3] | MIC [4] | MIC [5] | MIC [6] | MIC [7] | MIC [8] | MIC [9] | MIC [10] | MIC [11] | MIC [12]
CC(O)CC(=O)OC1CC(C)CCC1C(C)C [(3S)-CA20, menthyl 3-hydroxybutanoate] | 200 µg/mL (≈ 0.825 mM) | > 1600 µg/mL | 200 µg/mL (≈ 0.825 mM) | > 1600 µg/mL | > 1600 µg/mL | 100 µg/mL (≈ 0.413 mM) | 100 µg/mL (≈ 0.413 mM) | 100 µg/mL (≈ 0.413 mM) | 100 µg/mL (≈ 0.413 mM) | 200 µg/mL (≈ 0.825 mM) | 200 µg/mL (≈ 0.825 mM) | 200 µg/mL (≈ 0.825 mM)
CC1CCC(C(C)C)C(OCC(C)(O)CO)C1 (centres unmarked) [CA1, 2-methyl-3-(menthoxy)propane-1,2-diol] | 400 µg/mL (≈ 1.64 mM) | > 1600 µg/mL | 400 µg/mL (≈ 1.64 mM) | > 1600 µg/mL | > 1600 µg/mL | 800 µg/mL (≈ 3.27 mM) | < 50 µg/mL | 100 µg/mL (≈ 0.409 mM) | 200 µg/mL (≈ 0.818 mM) | 400 µg/mL (≈ 1.64 mM) | 400 µg/mL (≈ 1.64 mM) | 800 µg/mL (≈ 3.27 mM)
CC1CCC(C(C)C)C(OCCO)C1 (centres unmarked) [CA5, 2-(menthoxy)ethanol] | 800 µg/mL (≈ 3.99 mM) | > 1600 µg/mL | 400 µg/mL (≈ 2 mM) | 1600 µg/mL (≈ 7.99 mM) | > 1600 µg/mL | 800 µg/mL (≈ 3.99 mM) | 200 µg/mL (≈ 0.998 mM) | 200 µg/mL (≈ 0.998 mM) | 200 µg/mL (≈ 0.998 mM) | 400 µg/mL (≈ 2 mM) | 400 µg/mL (≈ 2 mM) | 800 µg/mL (≈ 3.99 mM)
CC1CCC(C(C)C)C(OCC(O)CO)C1 (centres unmarked) [CA10, 3-menthoxypropane-1,2-diol, reference compound] | 800 µg/mL (≈ 3.47 mM) | > 1600 µg/mL | 800 µg/mL (≈ 3.47 mM) | 1600 µg/mL (≈ 6.95 mM) | > 1600 µg/mL | 800 µg/mL (≈ 3.47 mM) | < 50 µg/mL | 100 µg/mL (≈ 0.434 mM) | 200 µg/mL (≈ 0.868 mM) | 800 µg/mL (≈ 3.47 mM) | 800 µg/mL (≈ 3.47 mM) | 800 µg/mL (≈ 3.47 mM)
CC1CCC(C(C)C)C(OCCCO)C1 (centres unmarked) [CA15, 3-menthoxypropan-1-ol] | 400 µg/mL (≈ 1.87 mM) | > 1600 µg/mL | 200 µg/mL (≈ 0.933 mM) | > 1600 µg/mL | > 1600 µg/mL | 400 µg/mL (≈ 1.87 mM) | 200 µg/mL (≈ 0.933 mM) | 100 µg/mL (≈ 0.467 mM) | 100 µg/mL (≈ 0.467 mM) | 400 µg/mL (≈ 1.87 mM) | 200 µg/mL (≈ 0.933 mM) | 400 µg/mL (≈ 1.87 mM)
CC1CCC(C(C)(C)O)C(O)C1 (centres unmarked) [CA38, p-menthane-3,8-diol, reference compound] | 800 µg/mL (≈ 4.64 mM) | > 1600 µg/mL | > 1600 µg/mL | > 1600 µg/mL | > 1600 µg/mL | > 1600 µg/mL | > 1600 µg/mL | 1600 µg/mL (≈ 9.29 mM) | 1600 µg/mL (≈ 9.29 mM) | > 1600 µg/mL | > 1600 µg/mL | > 1600 µg/mL
CC1CCC(C(C)C)C(OCCOCCO)C1 (centres unmarked) [CA55, 2-(2-menthoxyethoxy)ethanol] | 800 µg/mL (≈ 3.27 mM) | > 1600 µg/mL | 800 µg/mL (≈ 3.27 mM) | > 1600 µg/mL | > 1600 µg/mL | 800 µg/mL (≈ 3.27 mM) | 800 µg/mL (≈ 3.27 mM) | 100 µg/mL (≈ 0.409 mM) | 100 µg/mL (≈ 0.409 mM) | 800 µg/mL (≈ 3.27 mM) | 800 µg/mL (≈ 3.27 mM) | 800 µg/mL (≈ 3.27 mM)
CC1CCC(C(C)C)C(OC(=O)C=O)C1 (centres unmarked) [CA MGH, menthyl glyoxylate] | 50 µg/mL (≈ 0.236 mM) | 800 µg/mL (≈ 3.77 mM) | 50 µg/mL (≈ 0.236 mM) | 100 µg/mL (≈ 0.471 mM) | 800 µg/mL (≈ 3.77 mM) | 200 µg/mL (≈ 0.942 mM) | 200 µg/mL (≈ 0.942 mM) | 50 µg/mL (≈ 0.236 mM) | – | 100 µg/mL (≈ 0.471 mM) | 200 µg/mL (≈ 0.942 mM) | 100 µg/mL (≈ 0.471 mM)
CNC(=O)C(C)(C(C)C)C(C)C [WS-23, N-methyl-2-isopropyl-2,3-dimethylbutanamide, reference compound] | > 1600 µg/mL | > 1600 µg/mL | > 1600 µg/mL | > 1600 µg/mL | > 1600 µg/mL | > 1600 µg/mL | > 1600 µg/mL | > 1600 µg/mL | > 1600 µg/mL | > 1600 µg/mL | > 1600 µg/mL | > 1600 µg/mL
CC1CCC(C(C)C)C(O)C1 (stereo not drawn) [l-menthol, menthol, reference compound] | 1600 µg/mL (≈ 10.2 mM) | 1600 µg/mL (≈ 10.2 mM) | 1600 µg/mL (≈ 10.2 mM) | 1600 µg/mL (≈ 10.2 mM) | > 1600 µg/mL | 1600 µg/mL (≈ 10.2 mM) | 1600 µg/mL (≈ 10.2 mM) | 1600 µg/mL (≈ 10.2 mM) | 1600 µg/mL (≈ 10.2 mM) | 1600 µg/mL (≈ 10.2 mM) | 1600 µg/mL (≈ 10.2 mM) | > 1600 µg/mL

From US20140163099A1, “ANTIMICROBIAL COMPOSITION” (TAKASAGO INTERNATIONAL CORPORATION, priority 2011, published 2014)
